Article PMC6017115, “Inhibitory Effect of Sauchinone on UDP-Glucuronosyltransferase (UGT) 2B7 Activity” (Molecules : A Journal of Synthetic Chemistry and Natural …, 2018)

Assays:
UGT2B7 = molecular target: T1, UGT2B7 (Homo sapiens, UniProt P16662); assay: Inhibition of UGT2B7 (zidovudine glucuronidation) in human liver microsomes; type: in vitro ADME; set-up: tissue Corning Life Sciences 452156; host or cells: pooled human liver microsomes
T1 sequence (P16662 24-529): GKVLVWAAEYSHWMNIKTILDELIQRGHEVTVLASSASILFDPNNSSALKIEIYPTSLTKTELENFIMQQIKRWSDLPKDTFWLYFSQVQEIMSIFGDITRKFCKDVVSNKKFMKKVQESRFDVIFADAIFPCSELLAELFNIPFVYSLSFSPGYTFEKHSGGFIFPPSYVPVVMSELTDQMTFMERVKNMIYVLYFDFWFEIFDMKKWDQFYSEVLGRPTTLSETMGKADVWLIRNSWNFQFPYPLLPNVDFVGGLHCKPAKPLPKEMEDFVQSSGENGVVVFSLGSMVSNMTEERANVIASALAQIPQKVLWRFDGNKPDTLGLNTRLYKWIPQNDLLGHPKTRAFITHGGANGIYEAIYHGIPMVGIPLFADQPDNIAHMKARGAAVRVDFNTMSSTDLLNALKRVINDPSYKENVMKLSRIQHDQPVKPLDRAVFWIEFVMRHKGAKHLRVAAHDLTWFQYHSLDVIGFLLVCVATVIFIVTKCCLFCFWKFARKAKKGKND
Procedure: (§1) Their IC50 values were compared to that of sauchinone. […] UGT-mediated activities in the presence of sauchinone as an inhibitor were expressed as percentages of corresponding control values (in absence of sauchinone). From percentages of control activity versus inhibitor concentrations, a sigmoid shaped curve was fitted to the data and IC50 as an enzyme inhibition parameter was calculated by fitting the Hill equation to the data using GraphPad Prism 5 (GraphPad Software Inc., San Diego, CA, USA).

UGT1A6 = molecular target: T2, UGT1A6 (Homo sapiens, UniProt P19224); assay: Inhibition of UGT1A6 (serotonin glucuronidation) in human liver microsomes; type: in vitro ADME
T2 construct: tissue Corning Life Sciences 452156; host or cells: pooled human liver microsomes
T2 sequence (P19224 27-532): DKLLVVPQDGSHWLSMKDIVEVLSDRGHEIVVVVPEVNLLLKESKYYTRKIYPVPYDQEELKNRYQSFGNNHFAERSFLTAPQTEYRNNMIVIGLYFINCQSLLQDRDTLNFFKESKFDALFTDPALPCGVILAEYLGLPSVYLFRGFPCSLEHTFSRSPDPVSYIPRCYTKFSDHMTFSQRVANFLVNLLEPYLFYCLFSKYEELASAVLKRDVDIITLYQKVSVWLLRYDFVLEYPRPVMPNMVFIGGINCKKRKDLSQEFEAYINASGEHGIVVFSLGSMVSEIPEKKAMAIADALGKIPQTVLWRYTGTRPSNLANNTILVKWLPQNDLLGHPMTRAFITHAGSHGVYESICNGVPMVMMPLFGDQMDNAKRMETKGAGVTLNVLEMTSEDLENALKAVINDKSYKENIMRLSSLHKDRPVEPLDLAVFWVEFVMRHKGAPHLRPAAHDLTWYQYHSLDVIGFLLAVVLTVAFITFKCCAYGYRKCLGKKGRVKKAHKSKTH
Procedure: as §1

C[C@@H]1[C@H]2c3cc4c(cc3O[C@@]35OCOC3=CC(=O)[C@H](C[C@H]1C)[C@@H]25)OCO4 [Sauchinone]
IC50 (UGT2B7): 0.279 µM | IC50 (UGT1A6): 0.758 µM
